Columns and labels:
Staph. aureus (Smith) = test: In vivo mouse protection test (CD50, 7-day survival after intraperitoneal infection); design: species or system Charles River mice; details: peptide alone, subcutaneous, e.g. 1 and 5 hours post-infection, mice infected i.p. with 10-100 x LD50 Staph. aureus (Smith)
Experimental: Charles River mice weighing approximately 20 g. each, were infected intraperitoneally with 10-100 times the LD50 of the infecting organism. At predetermined intervals post-infection, e.g., 1 and 5 hours, mice were dosed subcutaneously with graded doses of the new dipeptide, antibiotic and a combination thereof. The number of mice surviving each treatment for 7 days post-infection was observed and the CD50 is calculated. The results using D-cycloserine as an example of the antiobiotic and representative fluorinated dipeptides are shown in Table II, using Staph. aureus (Smith) as the infecting organism. The values are listed in mg./kg.

Strep. faecalis 10541 = test: Minimum inhibitory concentration, serial dilution in synthetic bacterial growth medium; format: cell-based; details: 35-37 °C, 16-20 hours, value in parentheses: a higher concentration did not always inhibit growth
Experimental: (§1) The above fluorinated dipeptides are prepared in sterile concentrated aqueous solutions. Serial dilutions are made to give a range of concentrations of the test substances. Samples of the dilutions are mixed with an appropriate sterile synthetic bacterial growth medium in test tubes. The tubes are then inoculated with an appropriate test organism and incubated at 35°-37° C. for 16-20 hours. […]

Enterococcus 89 = test: as above; format: cell-based; details: 35-37 °C, 16-20 hours
Experimental: as §1

Bacillus subtilis 9466 = test: as above; format: cell-based; details: 35-37 °C, 16-20 hours, value in parentheses: a higher concentration did not always inhibit growth
Experimental: as §1

Shigella sonnei 9290 = test: as above; format: cell-based; details: 35-37 °C, 16-20 hours, value in parentheses: a higher concentration did not always inhibit growth
Experimental: as §1

Staph. aureus Smith = test: as above; format: cell-based; details: 35-37 °C, 16-20 hours, value in parentheses: a higher concentration did not always inhibit growth
Experimental: as §1

E. coli Juhl = test: as above; format: cell-based; details: 35-37 °C, 16-20 hours, value in parentheses: a higher concentration did not always inhibit growth
Experimental: as §1

Kleb. pneumonise 8045 = test: as above; format: cell-based; details: 35-37 °C, 16-20 hours, value in parentheses: a higher concentration did not always inhibit growth
Experimental: as §1

Row | Compound | CD50, Peptide (Staph. aureus (Smith)) [mg/kg] | Minimum inhibitory concentration (Strep. faecalis 10541) | Minimum inhibitory concentration (Enterococcus 89) | Minimum inhibitory concentration (Bacillus subtilis 9466) | Minimum inhibitory concentration (Shigella sonnei 9290) | Minimum inhibitory concentration (Staph. aureus Smith) | Minimum inhibitory concentration (E. coli Juhl) | Minimum inhibitory concentration (Kleb. pneumonise 8045)
1 | N[C@H](CF)C(=O)N[C@@H](Cc1ccccc1)C(=O)O [Example 2, β-fluoro-D-alanyl-L-phenylalanine] | 75 to 150 | 0.78 | 25 | 3.1 |  |  |  | 
2 | C[C@H](NC(=O)[C@H](N)CF)C(=O)O [Example 1, β-fluoro-D-alanyl-L-alanine] | 9.4 |  | 200 |  |  |  |  | 
3 | CC(C)C[C@H](NC(=O)[C@H](N)CF)C(=O)O [Example 4, F-D-Ala-L-Leu] |  | 3.1 | 25 | 6.2 | 800 | 800 | 800 | 800
4 | CC(C)(NC(=O)[C@H](N)CF)C(=O)O [Example 5, βF-D-Ala-Aibu] |  | 800 | 25 |  |  | 800 |  | 800
5 | CC(C)[C@H](NC(=O)[C@H](N)CF)C(=O)O [Example 6, βF-D-Ala-L-Val] |  |  | 6.2 |  |  | 800 | 800 | 800
6 | N[C@H](CF)C(=O)N[C@@H](CCC(=O)O)C(=O)O [Example 3, βF-D-Ala-L-Glu] |  | 50 | 25 | 3.1 |  | 800 |  | 

— US4309342A, “Antibacterial peptides” (Abbott Laboratories, priority 1980, dated 1982)
